Reference: patent US10815197B2, “N-sulfonyl benzamides as voltage-gated sodium channel inhibitors” (SHANGHAI HAIYAN PHARMACEUTICAL TECHNOLOGY CO., LTD., priority 2016, dated 2020)
Where two headings read alike, the source gives them in different places.

Biological target: T1, hNav1.7 (Homo sapiens, UniProt Q15858)
T1 construct: host or cells: CHO
Experiment: Manual patch clamp experiment hNav1.7 (CHO-hNav1.7 stable cell line)
Format: cell-based
Details: for inhibitory activity against Nav1.7 (in words): comparison from Table 1; for inhibition at 0.1 µM: read-out: Inhibition of Nav1.7 100 nM(%); for inhibition at 1 µM: read-out: Inhibition of Nav1.7 1000 nM(%)
Source text: Assay 1: Manual Patch Clamp Experiment of Sodium Ion (hNav1.7, hNav1.5 and hNaV1.8) and Calcium Ion (hCav3.2) Channels
hNav1.7, hNav1.5 Manual Patch Clamp Experiment:
Patch voltage clamp electrophysiology allows for the direct measurement and quantification of current block of voltage-gated sodium channels (NaV's), and allows the determination of the time and voltage-dependence of block which has been interpreted as differential binding to the resting, open and inactivated states of the sodium channel to reflect the compound's inhibitory or activating effects (Hille, B., Journal of General Physiology (1977), 69: 497-515).
Representative compounds of the present invention were subject to a manual patch clamp experiment and the purpose of this study was to test the effect of compounds on this ion channel current on a stable cell line transfected with a specific ion channel using a manual patch clamp method. The used stable cell lines CHO-hNav1.7 and HEK-hNav1.5 were from Genionics and WuXi Apptec (Shanghai) respectively.
Manual patch clamp experimental program is as follows:
(1) Preparation of solutions and compounds: The whole cell patch clamp technique was used to record hNav1.7 and hNav1.5 currents. In the experiment, the composition of extracellular fluid (mM): HEPES: 5, NaCl: 40, KCl: CaCl2: 1, MgCl2: 1, CdCl2: 0.1, TEA-Cl: 20. The pH was adjusted to 7.3 with NaOH and the osmotic pressure was adjusted to 310-320 mOsm with sucrose, filtered and stored at 4° C. The composition of the intracellular fluid (mM): HEPES: 10, NaCl: 10, CsOH: 5, CsF: 140, EGTA: 1. The pH was adjusted to 7.3 with CsOH and the osmotic pressure was adjusted to 280-290 mOsm with sucrose, filtered and stored at −20° C.
The positive control and the test compound were firstly dissolved in 100% DMSO (Sigma-Aldrich, D2650), configured as stock solution at a concentration (100 nM, 1000 nM).) The above stock solution was serially diluted with DMSO prior to the experiment, the solution was further diluted with extracellular solution to obtain the test solution of the desired concentration.
(2) Manual Patch Clamp Experiment: The cell suspension was added to a 35 mm petri dish and placed on an inverted microscope stage. The cells were perfused with an extracellular fluid and the flow rate was 1-2 mL/min after cell adherence. The glass microelectrode was prepared in two steps by a microelectrode puller with an inlet water resistance of 2-5 MΩ. A/D-D/A digital-analog conversion was performed by Digidata 1440 (Molecular Devices) and pCLAMP software (version 10.2, Molecular Devices) for stimulation and signal acquisition; the signal was amplified by patch clamp amplifier (Multiclamp 700B, Molecular Devices), and filtering is 4 KHz.
Two different voltage stimulation procedures were used in the hNav1.7 and hNav1.5 manual patch clamp experiments.
One is the inactivation stimulation program, the clamp potential is set at V1/2 of the corresponding channel, i.e., about 50% of the channels are inactivated, then the voltage is applied to −120 mV for 50 ms, then depolarized to −10 mV for 20 ms leading to sodium current, and finally returned to the clamp potential. This stimulation program can also be called channel state-dependent voltage stimulation program.
The other is the non-inactivation stimulation program, the clamp potential is maintained at −120 mV, voltage stimulation is given to −10 mV for 20 ms leading to sodium current, and finally returned to the clamp potential. That is, all channels have not experienced inactivation status, but activate directly from the resting state under the conditions of the stimulation program.
The time intervals of these two voltage stimulation programs were 10 s. The inhibitory effect of the compound was calculated by the change of the current before and after dosing, the IC50 value was fitted by the Hill equation.

T1 sequence (Q15858 whole entry): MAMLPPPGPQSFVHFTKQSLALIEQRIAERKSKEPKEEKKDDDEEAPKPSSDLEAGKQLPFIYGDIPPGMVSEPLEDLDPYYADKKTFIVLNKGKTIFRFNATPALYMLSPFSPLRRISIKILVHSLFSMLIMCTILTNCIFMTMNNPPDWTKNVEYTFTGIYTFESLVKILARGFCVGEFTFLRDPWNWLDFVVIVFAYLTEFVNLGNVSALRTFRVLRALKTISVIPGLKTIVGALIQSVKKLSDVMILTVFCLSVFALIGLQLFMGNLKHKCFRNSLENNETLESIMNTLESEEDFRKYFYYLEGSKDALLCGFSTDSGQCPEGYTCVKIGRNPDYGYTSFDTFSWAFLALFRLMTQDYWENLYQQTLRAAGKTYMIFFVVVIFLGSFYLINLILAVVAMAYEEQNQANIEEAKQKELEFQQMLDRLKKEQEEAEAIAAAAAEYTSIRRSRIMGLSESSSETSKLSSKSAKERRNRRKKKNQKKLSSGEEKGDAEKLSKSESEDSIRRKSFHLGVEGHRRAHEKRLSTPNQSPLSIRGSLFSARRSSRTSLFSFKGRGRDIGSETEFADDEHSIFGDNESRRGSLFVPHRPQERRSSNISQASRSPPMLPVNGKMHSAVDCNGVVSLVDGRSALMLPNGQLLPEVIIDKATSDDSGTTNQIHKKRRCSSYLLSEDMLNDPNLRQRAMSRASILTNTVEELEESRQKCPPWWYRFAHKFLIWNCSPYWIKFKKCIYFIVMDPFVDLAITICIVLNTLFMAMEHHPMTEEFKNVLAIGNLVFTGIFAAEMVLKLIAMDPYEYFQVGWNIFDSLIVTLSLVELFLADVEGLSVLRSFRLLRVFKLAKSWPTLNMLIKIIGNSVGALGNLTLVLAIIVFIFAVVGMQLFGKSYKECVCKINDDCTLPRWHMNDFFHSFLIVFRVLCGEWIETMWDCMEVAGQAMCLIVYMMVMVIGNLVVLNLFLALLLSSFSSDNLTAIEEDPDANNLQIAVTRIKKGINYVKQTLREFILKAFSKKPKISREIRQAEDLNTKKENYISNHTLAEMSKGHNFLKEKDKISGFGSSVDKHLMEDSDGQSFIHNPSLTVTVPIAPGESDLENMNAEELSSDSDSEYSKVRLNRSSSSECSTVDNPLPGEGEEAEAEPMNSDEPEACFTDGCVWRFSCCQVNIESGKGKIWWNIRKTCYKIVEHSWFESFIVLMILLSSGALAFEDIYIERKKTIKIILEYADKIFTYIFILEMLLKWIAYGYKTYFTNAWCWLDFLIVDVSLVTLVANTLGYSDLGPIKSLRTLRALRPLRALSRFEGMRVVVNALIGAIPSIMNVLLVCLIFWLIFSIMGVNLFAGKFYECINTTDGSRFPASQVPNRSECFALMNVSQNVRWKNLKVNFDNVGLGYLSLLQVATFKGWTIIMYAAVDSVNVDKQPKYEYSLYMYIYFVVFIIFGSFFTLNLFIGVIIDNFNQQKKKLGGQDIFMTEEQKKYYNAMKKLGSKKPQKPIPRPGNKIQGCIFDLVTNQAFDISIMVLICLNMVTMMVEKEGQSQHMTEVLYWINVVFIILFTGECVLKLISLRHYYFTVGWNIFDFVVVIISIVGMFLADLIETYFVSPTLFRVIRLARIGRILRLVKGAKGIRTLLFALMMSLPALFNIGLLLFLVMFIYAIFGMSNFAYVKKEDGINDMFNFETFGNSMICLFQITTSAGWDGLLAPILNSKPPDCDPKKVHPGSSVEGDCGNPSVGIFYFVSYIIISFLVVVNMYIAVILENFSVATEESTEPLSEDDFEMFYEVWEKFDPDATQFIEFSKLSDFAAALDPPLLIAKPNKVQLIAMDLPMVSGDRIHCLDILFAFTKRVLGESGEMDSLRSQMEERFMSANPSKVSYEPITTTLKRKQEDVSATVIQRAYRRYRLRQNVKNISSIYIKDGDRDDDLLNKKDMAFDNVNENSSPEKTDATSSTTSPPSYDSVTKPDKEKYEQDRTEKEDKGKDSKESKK

Compound: O=C(NS(=O)(=O)C1CC1)c1cc(C2CC2)c(CN2CCN(Cc3cc(Cl)cc(Cl)c3)CC2)cc1F [Compound C1, reference compound]
- inhibitory activity against Nav1.7 (in words): significantly reduced
- inhibition at 0.1 µM: 52%
- inhibition at 1 µM: 64%

Compound: CS(=O)(=O)NC(=O)c1cc(C2CC2)c(CN2CCN(Cc3ccc(Cl)c(Cl)c3)CC2)cc1F [Compound C2, reference compound]
- inhibitory activity against Nav1.7 (in words): significantly reduced
- inhibition at 0.1 µM (compound at 100 nM): 49.2%
- inhibition at 1 µM (compound at 1000 nM): 64.8%

Compound: Cc1cc(C(=O)N2CCN(Cc3cc(F)c(C(=O)NS(=O)(=O)C4CC4)cc3Cl)CC2)ccc1Cl [Compound C3, reference compound]
- inhibition at 0.1 µM (compound at 100 nM): 17.6%
- inhibition at 1 µM (compound at 1000 nM): 52.3%

Compound: Cc1cc(CN2CCN(Cc3cc(F)c(C(=O)NS(=O)(=O)C4CC4)cc3Cl)CC2)ccc1Cl [Compound C4, 5-chloro-4-((4-(4-chloro-3-methylbenzyl)piperazin-1-yl)methyl)-N-(cyclopropylsulfonyl)-2-fluorobenzamide, reference compound]
- inhibitory activity against Nav1.7 (in words): significantly reduced
- inhibition at 0.1 µM (compound at 100 nM): 18.6%
- inhibition at 1 µM (compound at 1000 nM): 58.9%

Compound: O=C(NS(=O)(=O)C1CC1)c1cc(Cl)c(CN2CCN(C(=O)c3ccc(Cl)cc3)CC2)cc1F [Compound C5, reference compound]
- inhibition at 0.1 µM (compound at 100 nM): 17.2%
- inhibition at 1 µM (compound at 1000 nM): 36.8%

Compound: O=C(NS(=O)(=O)C1CC1)c1cc(Cl)c(CN2CCN(Cc3ccc(Cl)cc3)CC2)cc1F [Compound C6, reference compound]
- inhibition at 0.1 µM (compound at 100 nM): 11.2%
- inhibition at 1 µM (compound at 1000 nM): 57.2%

Compound: O=C(NS(=O)(=O)C1CC1)c1cc(Cl)c(OC[C@H]2CCCN2Cc2ccc(Cl)cc2)cc1F [Compound C7, (R)-5-chloro-4-((1-(4-chlorobenzyl)pyrrolidin-2-yl)methoxy)-N-(cyclopropylsulfonyl), reference compound]
- inhibition at 0.1 µM: 31.1%
- inhibition at 1 µM: 67.5%

Compound: O=C(NS(=O)(=O)C1CC1)c1cc(Cl)c(OC[C@H]2CCCN2Cc2ccc(C(F)(F)F)cc2)cc1F [Compound C8, (R)-5-chloro-N-(cyclopropylsulfonyl)-2-fluoro-4-((1-(4-(trifluoromethyl)benzyl)pyrrolidin-2-yl)methoxy), reference compound]
- inhibition at 0.1 µM (compound at 100 nM): 47%
- inhibition at 1 µM (compound at 1000 nM): 66.8%

Compound: O=C(NS(=O)(=O)C1CC1)c1cc(Cl)c(OC[C@H]2CCCN2C(=O)c2ccc(Cl)cc2)cc1F [Compound C9, (R)-5-chloro-4-((1-(4-chlorobenzoyl)pyrrolidin-2-yl)methoxy)-N-(cyclopropylsulfonyl), reference compound]
- inhibition at 0.1 µM (compound at 100 nM): 5.49%
- inhibition at 1 µM (compound at 1000 nM): 29.1%

Compound: O=C(NS(=O)(=O)C1CC1)c1cc(Cl)c(OC[C@H]2CCCN2C(=O)c2ccc(C(F)(F)F)cc2)cc1F [Compound C10, (R)-5-chloro-N-(cyclopropylsulfonyl)-2-fluoro-4-((1-(4-(trifluoromethyl)benzoyl)pyrrolidin-2-yl)methoxy), reference compound]
- inhibition at 0.1 µM (compound at 100 nM): 7.83%
- inhibition at 1 µM (compound at 1000 nM): 24.7%

Compound: CS(=O)(=O)NC(=O)c1cc(C2CC2)c(CN2CCN(Cc3cc(Cl)cc(Cl)c3)CC2)cc1F [Compound C11, reference compound]
- inhibitory activity against Nav1.7 (in words): significantly reduced
- inhibition at 0.1 µM (compound at 100 nM): 23.1%
- inhibition at 1 µM (compound at 1000 nM): 51.9%

Compound: O=C(NS(=O)(=O)C1CC1)c1cc(C2CC2)c(OC[C@H]2CCCN2c2ccc(C(F)(F)F)cn2)cc1F [Compound Z-142, (R)-5-cyclopropyl-N-(cyclopropylsulfonyl)-2-fluoro-4-((1-(5-(trifluoromethyl)pyridin-2-yl)pyrrolidin-2-yl)methoxy)benzamide]
- inhibition at 0.1 µM (compound at 100 nM): 92.2%
- inhibition at 1 µM (compound at 1000 nM): 97.8%

Compound: O=C(NS(=O)(=O)C1CC1)c1cc(Cl)c(OC[C@H]2CCCN2c2ccc(C(F)(F)F)cn2)cc1F [Compound Z-150, (R)-5-chloro-N-(cyclopropylsulfonyl)-2-fluoro-4-((1-(5-(trifluoromethyl)pyridin-2-yl)pyrrolidin-2-yl)methoxy)benzamide]
- inhibition at 0.1 µM (compound at 100 nM): 93.3%
- inhibition at 1 µM (compound at 1000 nM): 96.7%

Compound: O=C(NS(=O)(=O)C1CC1)c1cc(Cl)c(CN2CCN(c3ccc(C(F)(F)F)cc3)CC2)cc1F [Compound Z-174]
- inhibition at 0.1 µM (compound at 100 nM): 78%
- inhibition at 1 µM (compound at 1000 nM): 95.1%

Compound: Cc1cc(N2CCN(Cc3cc(F)c(C(=O)NS(=O)(=O)C4CC4)cc3Cl)CC2)cc(C)c1F [Compound Z-180]
- inhibition at 0.1 µM (compound at 100 nM): 70.4%
- inhibition at 1 µM (compound at 1000 nM): 97.8%

Compound: Cc1c(F)c(F)cc(N2CCN(Cc3cc(F)c(C(=O)NS(=O)(=O)C4CC4)cc3Cl)CC2)c1F [Compound Z-182]
- inhibition at 0.1 µM (compound at 100 nM): 77.2%
- inhibition at 1 µM (compound at 1000 nM): 97.6%

Compound: Cc1c(F)ccc(N2CCN(Cc3cc(F)c(C(=O)NS(=O)(=O)C4CC4)cc3Cl)CC2)c1Cl [Compound Z-184]
- inhibition at 0.1 µM (compound at 100 nM): 70.3%
- inhibition at 1 µM (compound at 1000 nM): 98.5%

Compound: Cc1cc(N2CCN(Cc3cc(F)c(C(=O)NS(=O)(=O)C4CC4)cc3Cl)CC2)cc(C)c1Cl [Compound Z-185]
- inhibition at 0.1 µM (compound at 100 nM): 85.3%
- inhibition at 1 µM (compound at 1000 nM): 94.9%

Compound: Cc1c(Cl)ccc(N2CCN(Cc3cc(F)c(C(=O)NS(=O)(=O)C4CC4)cc3Cl)CC2)c1F [Compound Z-188]
- inhibition at 0.1 µM (compound at 100 nM): 81.8%
- inhibition at 1 µM (compound at 1000 nM): 98.1%

Compound: CCc1cc(C(=O)NS(=O)(=O)C2CC2)c(F)cc1CN1CCN(c2ccc(Cl)c(Cl)c2)CC1 [Compound Z-191]
- inhibition at 0.1 µM (compound at 100 nM): 73.3%
- inhibition at 1 µM (compound at 1000 nM): 95%

Compound: CCc1cc(C(=O)NS(=O)(=O)C2CC2)c(F)cc1CN1CCN(c2cc(Cl)cc(Cl)c2)CC1 [Compound Z-192]
- inhibition at 0.1 µM (compound at 100 nM): 77.7%
- inhibition at 1 µM (compound at 1000 nM): 98.4%

Compound: CCc1cc(C(=O)NS(=O)(=O)C2CC2)c(F)cc1CN1CCN(c2ccc(Cl)c(F)c2)CC1 [Compound Z-193]
- inhibition at 0.1 µM (compound at 100 nM): 72.6%
- inhibition at 1 µM (compound at 1000 nM): 95.7%

Compound: O=C(NS(=O)(=O)C1CC1)c1cc(C2CC2)c(CN2CCN(c3cc(Cl)cc(Cl)c3)CC2)cc1F [Compound Z-197]
- inhibition at 0.1 µM: 83.6%
- inhibition at 1 µM: 100%

Compound: (cyclopropylsulfonyl)-4-((4-(3,4-dichlorophenyl) piperazin-1-yl)methyl)-2-fluorobenzamide [Compound Z-196]
- Inhibition of Nav1.7 100 nM(%) (compound at 100 nM): 85.03%
- Inhibition of Nav1.7 1000 nM(%) (compound at 1000 nM): 93.02%
